Data as given in ChEMBL document CHEMBL1201862, “PubChem BioAssay data set” (2004).
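Compound exposure: 48 hours, 5 concentrations, 96-well plates. GI50 is the concentration that inhibits growth by half.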 The source made the active and inactive calls. Cut-off read from the data, not from the text of the source: active = GI50 up to about 1.1 µM and inactive = higher.

Assays:
Assay in all cases: NCI tumour cell line growth inhibition, 48 h
A549 = test system: A549
DMS-273 = test system: DMS-273
Hs-578T = test system: Hs-578T
SN12C = test system: SN12C
NCI-H460 = test system: NCI-H460
SW-620 = test system: SW-620
RPMI-8226 = test system: RPMI-8226
M19-MEL = test system: M19-MEL
DLD-1 = test system: DLD-1
U-251 = test system: U-251
UACC-257 = test system: UACC-257
EKVX = test system: EKVX
UO-31 = test system: UO-31
SF-295 = test system: SF-295
SF-539 = test system: SF-539
BT-549 = test system: BT-549
786-0 = test system: 786-0
OVCAR-8 = test system: OVCAR-8
SR = test system: SR

Row | Compound | GI50 (A549) | GI50 (DMS-273) | GI50 (Hs-578T) | GI50 (SN12C) | GI50 (NCI-H460) | GI50 (SW-620) | GI50 (RPMI-8226) | GI50 (M19-MEL) | GI50 (DLD-1) | GI50 (U-251) | GI50 (UACC-257) | GI50 (EKVX) | GI50 (UO-31) | GI50 (SF-295) | GI50 (SF-539) | GI50 (BT-549) | GI50 (786-0) | GI50 (OVCAR-8) | GI50 (SR)
1 | CC1=C(C(=O)Nc2ccc(Cl)c(C(=O)OC(C)C)c2)SCCO1 | 50.1 µM (inactive) | 55.6 µM (inactive) | 17.7 µM (inactive) | > 100 µM (inactive) | 66.2 µM (inactive) | 74.8 µM (inactive) | 23.3 µM (inactive) | 26.6 µM (inactive) | 74 µM (inactive) | 55.7 µM (inactive) | 62.1 µM (inactive) | 71.4 µM (inactive) | 36.9 µM (inactive) | 54.7 µM (inactive) | > 89.3 µM (inactive) | > 100 µM (inactive) | > 100 µM (inactive) | 81.3 µM (inactive) | 
2 | COCCOCOC(C)(C)[C@H](CCO)O[Si](c1ccccc1)(c1ccccc1)C(C)(C)C | 6.32 µM (inactive) |  |  | 3.34 µM (inactive) | 5.15 µM (inactive) | 11.2 µM (inactive) | 6.17 µM (inactive) | 11.7 µM (inactive) | 9.64 µM (inactive) | 11 µM (inactive) | 8.77 µM (inactive) | 13.5 µM (inactive) | 13 µM (inactive) | 5.74 µM (inactive) | 14.1 µM (inactive) |  |  | 10.4 µM (inactive) | 3.25 µM (inactive)
3 | Cc1oc2nc(N(C)C)n3c(C)nnc3c2c1C | > 100 µM (inactive) |  | > 100 µM (inactive) | > 100 µM (inactive) |  | > 100 µM (inactive) | > 100 µM (inactive) |  |  | > 100 µM (inactive) | > 100 µM (inactive) | > 100 µM (inactive) | > 100 µM (inactive) | > 100 µM (inactive) | > 100 µM (inactive) | > 100 µM (inactive) | > 100 µM (inactive) | > 100 µM (inactive) | > 100 µM (inactive)
4 | CCOC(=O)C1=CC(C)(C(=O)OCC)Nc2c(nc(OC)n(C)c2=O)N1 (stereo unspecified) | > 10 µM (inactive) |  | > 10 µM (inactive) | > 10 µM (inactive) | > 10 µM (inactive) | > 10 µM (inactive) | > 10 µM (inactive) |  |  | > 10 µM (inactive) | > 10 µM (inactive) | > 10 µM (inactive) | > 10 µM (inactive) | > 10 µM (inactive) | > 10 µM (inactive) | > 10 µM (inactive) | > 10 µM (inactive) | > 10 µM (inactive) | 
5 | CCOC(=O)c1c(SC(=O)c2ccc(Cl)cc2)n(-c2ccccc2)c(=S)n(-c2ccccc2)c1=O | > 100 µM (inactive) |  | > 100 µM (inactive) | > 100 µM (inactive) | > 100 µM (inactive) | > 100 µM (inactive) |  |  |  | > 100 µM (inactive) | > 100 µM (inactive) | > 100 µM (inactive) |  | > 100 µM (inactive) | > 100 µM (inactive) |  | > 100 µM (inactive) | > 100 µM (inactive) | > 100 µM (inactive)
6 | CN1CCN(Cn2nc(COc3ccc(Cl)cc3)n(/N=C/c3ccc(-c4ccc(Cl)cc4Cl)o3)c2=S)CC1 |  |  | 3.72 µM (inactive) |  | 17.8 µM (inactive) | 5.06 µM (inactive) |  |  |  | 10.9 µM (inactive) | 17.6 µM (inactive) | 14.5 µM (inactive) | 17.6 µM (inactive) | 13.4 µM (inactive) | 26.4 µM (inactive) |  | 5.12 µM (inactive) | 4.89 µM (inactive) | 2.63 µM (inactive)
7 | Brc1ccccc1/C=C\C1(c2ccccc2)OCCO1 | 16 µM (inactive) |  | 7.6 µM (inactive) | 14.1 µM (inactive) | 14.1 µM (inactive) | 5.47 µM (inactive) | 1.01 µM (active) |  |  | 6.24 µM (inactive) | 16.5 µM (inactive) | 15.8 µM (inactive) | 7.83 µM (inactive) | 13.4 µM (inactive) | 10.4 µM (inactive) | 18.3 µM (inactive) | 11.6 µM (inactive) | 9.23 µM (inactive) | 0.692 µM (active)
8 | CC1(C)N/C(=C\C=O)C(C)(C)N1O | > 100 µM (inactive) |  | > 100 µM (inactive) | > 100 µM (inactive) | > 100 µM (inactive) | > 100 µM (inactive) | > 100 µM (inactive) |  |  | > 100 µM (inactive) | > 100 µM (inactive) | > 100 µM (inactive) | > 100 µM (inactive) | > 100 µM (inactive) | > 100 µM (inactive) |  |  | > 100 µM (inactive) | > 100 µM (inactive)
9 | CN1C(=O)NC(=O)/C(=C\Nc2ncccn2)C1=O | > 100 µM (inactive) |  | > 100 µM (inactive) | > 100 µM (inactive) | > 100 µM (inactive) | > 100 µM (inactive) |  |  |  | > 100 µM (inactive) | > 100 µM (inactive) | > 100 µM (inactive) | > 100 µM (inactive) | > 100 µM (inactive) | > 100 µM (inactive) |  | > 100 µM (inactive) | > 100 µM (inactive) | 
10 | COc1cc2c(cc1OC)C(Cc1c3ccccc3cc3ccccc13)N(C)CC2 (stereo unspecified) | 39.8 µM (inactive) | 26 µM (inactive) |  | 42 µM (inactive) | 20 µM (inactive) | 27 µM (inactive) | 13.9 µM (inactive) | 21.3 µM (inactive) | 32.1 µM (inactive) | 16.9 µM (inactive) | 18.9 µM (inactive) | 25.6 µM (inactive) | 13 µM (inactive) | 17.4 µM (inactive) | 19.5 µM (inactive) |  |  | 26.5 µM (inactive) | 
11 | CCOC(=O)/C=C(/C)Nc1nc2c(c(C(=O)OC)c1C#N)CCCC2 | > 100 µM (inactive) |  | > 100 µM (inactive) | > 100 µM (inactive) | > 100 µM (inactive) | > 100 µM (inactive) | > 100 µM (inactive) |  |  | > 100 µM (inactive) | > 100 µM (inactive) | 86.1 µM (inactive) | > 100 µM (inactive) | > 100 µM (inactive) |  | > 100 µM (inactive) | > 100 µM (inactive) | > 100 µM (inactive) | > 100 µM (inactive)
12 | CCN(CC)CCN1C(=O)C(=O)N(c2cccc3ccccc23)C1=O | > 10 µM (inactive) |  | 8.65 µM (inactive) | > 10 µM (inactive) | > 10 µM (inactive) | > 10 µM (inactive) | > 10 µM (inactive) |  |  | > 10 µM (inactive) |  | > 10 µM (inactive) | > 10 µM (inactive) | > 10 µM (inactive) | > 10 µM (inactive) |  |  | > 10 µM (inactive) | > 10 µM (inactive)
13 | CCOc1cc(C(=O)O)c2c(ccc3ccc(OC)c(OC)c32)c1OC | > 100 µM (inactive) |  | > 100 µM (inactive) | > 100 µM (inactive) | > 100 µM (inactive) | > 100 µM (inactive) | > 100 µM (inactive) |  |  | > 100 µM (inactive) | > 100 µM (inactive) | > 100 µM (inactive) | > 100 µM (inactive) | > 100 µM (inactive) |  | > 100 µM (inactive) | > 100 µM (inactive) | > 100 µM (inactive) | > 100 µM (inactive)
14 | CCCCCCCCCCCCCCCCOCC(CC(F)(F)P(=O)(OCC)OCC)OC(C)=O (stereo unspecified) | 12 µM (inactive) |  |  | 19.7 µM (inactive) | 10.7 µM (inactive) | 14.8 µM (inactive) | 25.1 µM (inactive) |  |  | 2.72 µM (inactive) | 17.5 µM (inactive) | 21.7 µM (inactive) | 16 µM (inactive) | 11.6 µM (inactive) |  | 15.2 µM (inactive) | 10.8 µM (inactive) |  | 
